Results: patent US4931288A, “Controlled release compositions (II)” (Lloyds Bank PLC, priority 1979, dated 1990)

What was measured:
[1] = In vitro release of prostaglandin from dry polymer cylinders/pessaries/slices into phosphate buffer pH 7.4 via 3H activity; details: for T1/2: dried polymer sample, pH 7.4, 37°; for t1/2: pH 7.4, 37° C.
Protocol: 19.08 g Prostin E2 at a 1% w/v solution in dephydrated ethanol is weighed. This is equivalent to 24.15 ml and therefore 0.2415 g PGE2.
25 of the pessaries (2.6 mm×10 mm×10 mm total weight 23.02 g) are then put in a polythene bag. The swelling solution is added, and the bag is sealed. The pessaries are then allowed to swell in the PGE2 solution for 20 hours by which time nearly all the solution has been absorbed by the polymer. The bag is cut open and the swollen pessaries are removed and weighed. Uptake of solution: 104.75 g. Average PGE2 content/pessary 9.3 mg.
The swollen pessaries are then vacuum dried at room temperature.
An identical pessary is prepared with the addition of 1 μCi ^3 H labelled PGE2 to study in vitro the release of PGE2 from the dry pessary into phosphate buffer pH 7.4 at 37° C. through measurement of ^3 H activity of the buffer solution which is replaced by fresh buffer at regular intervals.
A slice of the polymer 1 mm×11 mm×22 mm weighing 0.2678 g is added to the Ono solution in a polythene bag which is then sealed. After 6 hours swelling the bag is cut open and the swollen gel is weighed.
A slice of PEO 1.2×24×40 mm weighing 1.3083 g is added to the solution in a polythene bag which is then sealed.

[2] = Clinical induction of abortion; assay type: in vivo, human; details: from 1 to 2.5 mg
[3] = In vitro release of prostaglandin from swollen (undried) polymer cylinders/pessaries into phosphate buffer pH 7.4 at 37° C.; assay type: physicochemical; details: for t1/2: pH 7.4, 37°
Protocol: (B) The procedure described in (A) is followed but the swollen cylinders obtained after 24 hours treatment with the PGE2 solution are not dried but are tested directly for the release of PGE2 into pH 7.4 phosphate buffer at 37° C. In this instance a typical half life is of the order of 10 hours.
To study the release of PGE2 from a fully swollen pessary into phosphate buffer pH 7.4 at 37° the polymer is swollen in an ethanol/water solution of PGE2 of 0.87 g C2 H5 OH solution of 1% w/v Prostin E2 contains 11 mg PGE2 0.09 g C2 H5 OH containing 1 μCi of ^3 HPGE2 is added, then 3.56 g H2 O. A slice of polymer 3.1 mm×10 mm×30 mm weighing 1.13 g is added to the prepared PGE2 solution in 3.7/1, w/w, water/ethanol in a polythene bag. The bag is sealed and the polymer allowed to swell over 20 hours. The swollen polymer slice is then removed and the surface wiped dry with a tissue before weighing. Uptake of solution: 4.44 g i.e. almost all the PGE2 is contained in the swollen gel. The pessary is rinsed in distilled water and then transferred to phosphate buffer solution pH 7.4 at 37° C. The release of PGE2 into the surrounding solution is measured by frequent regular replacement of the buffer and counting the activity of ^3 H in the withdrawn solution. […] It is also possible to calculate the diffusion coefficient of PGE2 in the swollen gel D=0.83×10^-6 cm^2 sec^-1.

[4] = Clinical pilot study of hydrogel vaginal pessaries containing PGE2 10 mg (induction of labour); assay type: in vivo, human
Protocol: Hydrogel vaginal pessaries, formulated as above, each containing PGE2 10 mg, have been evaluated clinically in a pilot study.

## CCCCC(C)(C)[C@H](O)/C=C/[C@H]1[C@H](O)CC(=O)[C@@H]1C/C=C\CCCC(=O)OC [Ono, 16,16-dimethyl PGE2, methyl ester]
[1]; Example 13, 3 different thicknesses
  dependence of half life t1/2 on thickness: directly proportional to the square of the thickness
[1]; Example 13, thickness 0.25 mm
  T1/2: 0.5 h
[1]; Example 13, thickness 0.65 mm
  T1/2: 3.0 h
[1]; Example 13, thickness 1.00 mm
  T1/2: 6.3 h
[1]; Example 13, dried slice 1 mm×11 mm×22 mm, phosphate buffer pH 7.4, 37°
  half life of Ono in this sample: 6.3 h

## CCCCC(C)(C)[C@@H](O)/C=C/[C@H]1[C@H](O)CC(=O)[C@@H]1CCCC/C=C/C(=O)O (relative stereo) [16:16-dimethyl-trans-Δ^2 -PGE1]
[2]
  induction of abortion: Induction of abortion has been effected

## CCCCC[C@H](O)/C=C/[C@H]1[C@H](O)CC(=O)[C@@H]1C/C=C\CCCC(=O)O [PGE2]
[3]; Example 10(B), swollen cylinders not dried, pH 7.4 phosphate buffer, 37° C., typical
  half life for release: ~10 h
[3]; Example 12
  half life in the fully swollen device relative to the initially dry device: approximately half of the half life in the initially dry device
[3]; Example 12, fully swollen devices
  constancy of the rate of release: do not provide the desirable reasonably constant period of the rate of release
[3]; Example 12, fully swollen pessary 3.1 mm×10 mm×30 mm, phosphate buffer pH 7.4, 37°
  half life t1/2 of PGE2 in the swollen pessary: 2.7 h
[3]; Example 12, fully swollen pessary, thickness 1.2 mm
  t1/2: 0.7 h
[3]; Example 12, fully swollen pessary, thickness 2.4 mm
  t1/2: 2.0 h
[3]; Example 12, fully swollen pessary, thickness 3.1 mm
  t1/2: 2.7 h
[3]; Example 12, fully swollen pessary, calculated from release measurements
  diffusion coefficient of PGE2 in the swollen gel, D: 0.83×10^-6 cm^2 sec^-1
[4]; patients with average or favourable induction prospects, PGE2 treatment alone, without orthodox induction
  labour and delivery outcome: became established in labour and made good progress, with successful vaginal delivery
[4]; unfavourable patients
  cervical ripening: progressive
  establishment in labour: all were established in labour
  latent phase of labour: expectedly longer
[4]; vaginal pessaries, PGE2 10 mg
  agreement of clinical experience with in vitro release: accorded well with in vitro release studies
  course of uterine activity: maintained or gradually increased
  time to appreciable uterine activity, not requiring analgesia: 1 to 2 h
[4]; vaginal pessaries, PGE2 10 mg, all cases
  ripening of the cervix: significant `ripening` of the cervix in all cases
[1]; Example 10(A), dry cylinders, PEG 6,000/MDI/TMP (0.75 molar) polymer, pH 7.4 phosphate buffer, 37° C., typical
  half life for release of the drug: ~20 h
[1]; Example 12, dry pessary, thickness 1.2 mm
  t1/2: 1.4 h
[1]; Example 12, dry pessary, thickness 1.5 mm
  t1/2: 2.4 h
[1]; Example 12, dry pessary, thickness 1.7 mm
  t1/2: 2.7 h
[1]; Example 12, dry pessary, thickness 2.6 mm
  t1/2: 7.0 h
[1]; Example 12, dry pessary, thickness 2.9 mm
  t1/2: 8.0 h
[1]; Example 12, dry pessary, thickness 3.4 mm
  t1/2: 12.0 h
[1]; Example 12, dry pessary, phosphate buffer pH 7.4, 37° C.
  half life t1/2 of the PGE2 in this polymer: 7 h

## CCCCC(C)(C)C(O)C=CC1C(O)CC(=O)C1CC=CCCCC(=O)Oc1ccc(C=NNC(N)=O)cc1 (stereo not drawn) [PG ester, 16,16 dimethyl prostaglandin E2 benzaldehyde semi-carbazone]
[1]; Example 14, 0.25 mm slice
  duration of the release pattern: 2 weeks
[1]; Example 14, 0.25 mm slice, day 2
  release rate: 50 µg/h
[1]; Example 14, 0.25 mm slice, overnight
  release rate: 13 µg/h
[1]; Example 14, thin (0.25 mm) sample
  character of the release: essentially that of a fully swollen device containing a dispersion rather than a solution of a low solubility prostaglandin analogue

## CCCCC(C)(C)[C@H](O)/C=C/[C@H]1[C@H](O)CC(=O)[C@@H]1CCCC/C=C/C(=O)OC [16,16-dimethyl-trans Δ^2 -PGE1 methyl ester]
[1]; Example 11, dry cylinders, PEG 6,000/MDI/TMP (0.75 molar) polymer, pH 7.4 phosphate buffer, typical
  half life of release: ~95 h

## CS(=O)(=O)NC(=O)CCC/C=C\C[C@H]1C(=O)C[C@@H](O)[C@@H]1/C=C/[C@@H](O)COc1ccccc1 [N methanesulphonyl 15z, 11α, 13E 15α)-9-Oxo-11,15-dihydroxy-16-phenoxy-w-tetranorprosta-5,13 dien-1-amide]
[1]; Example 15, dried slice 1.2×24×40 mm, buffer pH 7.4, 37° C.
  half-life of the drug in the pessary: 3.7 h
